The values below come from patent US20220119379A1, “IMMUNOMODULATOR” (HITGEN INC., priority 2019, published 2022).

SMILES strings stand for the structures. Read-outs that look alike come from different tables or passages of the source.

The subject of one test is CT26 cells. The test can be described thus: Tumor inhibitory effect, CT26 tumor re-excitation model. The format is in vivo, mice. As to the method: The tumor regression of each group of mice in the CT26 anti-tumor efficacy model of the above experimental example 4 was further observed. After 30 days of the last administration, CT26 cells were inoculated subcutaneously on the back. Each mouse was inoculated with 100 μL cell suspension containing 5×10^5 cells; mice that have not been treated with drugs were used as a control group to inoculate CT26 cells in the same way. The tumor was observed and the growth of the tumor was recorded.

Test [1] has as its target Sting protein (Homo sapiens, UniProt Q86WV6). In words: Binding affinity test of the compound and Sting protein by protein thermal transfer test (TSA). Particulars: Kd fitted from change of ΔTm with compound concentration. The protocol: The protein thermal transfer test (TSA) was used to determine the binding affinity of the compound to Sting protein. The 100 ug/ml Sting protein was mixed with different concentrations of the compound and 5× SYPRO Orange dye in a buffer of 20 mM Hepes, 150 mM NaCl, 1 mM MgCl2, 1 mM DTT, pH=7.5. The protein dissolution curve was measured on a qPCR instrument, the Tm value was fitted with Protein Thermal Shift Software 1.3 software, and the Tm difference of the protein was calculated when different concentrations of compound and no compound were added. The dissociation constant Kd was fitted and obtained according to the change of ΔTm with the concentration of the compound. […] The Kd value of each compound is classified according to the following instructions: […]

The target in test [2] is T1, Sting protein (Homo sapiens, UniProt Q86WV6, G230A/H232R/R293Q/R71H).
T1 construct: endogenous in cells; host or cells: THP1 cells (Shanghai Cell Bank)
T1 sequence (Q86WV6 whole entry R71H/G230A/H232R/R293Q): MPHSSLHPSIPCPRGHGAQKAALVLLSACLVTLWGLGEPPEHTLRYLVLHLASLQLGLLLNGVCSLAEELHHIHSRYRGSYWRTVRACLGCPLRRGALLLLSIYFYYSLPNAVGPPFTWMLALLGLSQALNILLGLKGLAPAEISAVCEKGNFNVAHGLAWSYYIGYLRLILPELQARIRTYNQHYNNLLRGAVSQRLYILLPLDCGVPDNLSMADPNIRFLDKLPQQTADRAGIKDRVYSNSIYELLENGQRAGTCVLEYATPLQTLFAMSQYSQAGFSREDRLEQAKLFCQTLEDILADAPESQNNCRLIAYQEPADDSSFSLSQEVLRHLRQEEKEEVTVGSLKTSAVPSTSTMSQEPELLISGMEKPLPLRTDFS
The test can be described thus: Agonistic function test on Sting protein: IFN-β and CXCL10 (IP10) cytokines produced by THP1 cells (ELISA). Particulars: for EC50: 18 hours, ELISA of supernatant; for activity of stimulating IFN-β and CXCL10 (IP10) cytokines produced by THP1 cells (in words): listed compounds compared with the reference compound. The class given is cell-based. As to the method:
In this experiment, the function of sting agonist was evaluated by detecting the changes of IFN-β and CXCL10 (IP10) cytokines produced by human peripheral blood mononuclear cell line THP1 cells (Shanghai Cell Bank) stimulated by the compounds. On the first day of the experiment, the ELISA plate was coated according to the IFN-β (R&D, #DY814-05) and IP10 (BD, #550926) ELISA test kit instructions. The compound was dissolved into DMSO stock solution and diluted with culture medium to a 2× working concentration, added to a 96-well plate, 100 μL per well. The THP1 cells in the logarithmic growth phase were taken to count, and were diluted to a concentration of 2*10^6/mL, added to the above-mentioned 96-well plate containing the compounds, with […], per well, mixed well, and incubated in a 37° C., 5% CO2 incubator for 18 hours. On the second day, the above cell culture supernatant was taken, 100 μL per well, and tested according to IFN-β and IP10 ELISA test kits respectively. The OD450 value was read, and converted into IFN-β and IP10 concentration according to the standard curve, and fitted with GraphPad 5.0 to calculate the EC50 value of the dose-efficiency curve.

Sting protein (Homo sapiens, UniProt Q86WV6), sequence (Q86WV6 whole entry H232R, species assumed): as the sequence (Q86WV6 whole entry R71H/G230A/H232R/R293Q) above, with H71R, A230G, Q293R counted along it

As for `CCc1nc(C)sc1C(=O)Nc1nc2cc(C(N)=O)cc(OC)c2n1C/C=C/Cn1c(NC(=O)c2cc(C)nn2CC)nc2cc(C(N)=O)cc(OCCCN3CCOCC3)c21` [Example 2, (E)-N-(5-carbamoyl-1-(4-(5-carbamoyl-2-(1-ethyl-3-methyl-1H-pyrazole-5-formylamino)-7-(3-morpholino)-1H-benzo[d]imidazol-1-yl)but-2-en-1-yl)-7-methoxy-1H-benzo[d]imidazol-2-yl)-4-ethyl-2-methylthiazole-5-formamide], the “tumor curve in CT26 tumor re-excitation model (FIG. 2)” value (from here on “tumor curve”) in the test with CT26 cells (1.5 mg/kg) and in the test on CT26 cells (4.5 mg/kg) was “overlap” throughout. The Kd on Sting protein [1] fell in the range of 1000 to 10000 nM. In addition, the EC50 at Sting protein [2] (read-out: IFN-β EC50) and on Sting protein [2] (read-out: IP10 EC50) was 10 to 100 nM each time. Besides, the “activity of stimulating IFN-β and CXCL10 (IP10) cytokines produced by THP1 cells (in words)” value (from here on “activity of stimulating IFN-β and CXCL10”) on Sting protein [2] is on record as “comparable or even higher activity”.
`CCc1nc(C)sc1C(=O)Nc1nc2cc(C(N)=O)cc(SC)c2n1C/C=C/Cn1c(NC(=O)c2cc(C)nn2CC)nc2cc(C(N)=O)cc(OCCCN3CCOCC3)c21` [Example 5]: the “tumor curve” value in the test with CT26 cells (1.5 mg/kg) is “overlap”. Also, the Kd on Sting protein [1] fell in the range of 1000 to 10000 nM. The EC50 at Sting protein [2] (read-out: IFN-β EC50) was 10 to 100 nM; at Sting protein [2] (read-out: IP10 EC50), < 10 nM. The “activity of stimulating IFN-β and CXCL10” value at Sting protein [2] is “comparable or even higher activity”.
With `CCc1nc(C)sc1C(=O)Nc1nc2cc(C(N)=O)cc(OC)c2n1C/C=C/Cn1c(NC(=O)c2cc(C)nn2CC)nc2cc(C(N)=O)cc(OCCCN3CCN(C4CC4)CC3)c21` [Example 15], the “tumor curve” value with CT26 cells (1 mg/kg) and in the test on CT26 cells (3 mg/kg) was “overlap” each time. In addition, the Kd at Sting protein [1] lay in the range of 1000 to 10000 nM. Also, the EC50 on Sting protein [2] (read-out: IFN-β EC50) and at Sting protein [2] (read-out: IP10 EC50) was 10 to 100 nM throughout. For the same compound, on Sting protein [2], the “activity of stimulating IFN-β and CXCL10” value is “comparable or even higher activity”.
Take `CCc1nc(C)sc1C(=O)Nc1nc2cc(C(N)=O)cc(OCCCN3CCN(CC)CC3)c2n1C/C=C/Cn1c(NC(=O)c2cc(C)nn2CC)nc2cc(C(N)=O)cc(SC)c21` [Example 17]: the “tumor curve” value in the test on CT26 cells (1.5 mg/kg) is given as “overlap”. The Kd at Sting protein [1] is 1000 to 10000 nM. Moreover, the EC50 on Sting protein [2] (read-out: IFN-β EC50) was 100 to 1000 nM; at Sting protein [2] (read-out: IP10 EC50), 10 to 100 nM.
`CCc1nc(C)sc1C(=O)Nc1nc2cc(C(N)=O)cc(OC)c2n1C/C=C/Cn1c(NC(=O)c2cc(C)nn2CC)nc2cc(C(N)=O)cc(OCCCN3CCN(C(C)=O)CC3)c21` [Example 29]: the “tumor curve” value with CT26 cells (1 mg/kg) was “overlap”. Besides, the Kd at Sting protein [1] lay within 1000 to 10000 nM. In addition, the EC50 at Sting protein [2] (read-out: IFN-β EC50) lay in the range of 100 to 1000 nM; on Sting protein [2] (read-out: IP10 EC50) it was 10 to 100 nM.
As for `CCc1nc(C)sc1C(=O)Nc1nc2cc(C(N)=O)cc(OCCCN3CCN(C(C)=O)CC3)c2n1C/C=C/Cn1c(NC(=O)c2cc(C)nn2CC)nc2cc(C(N)=O)cc(SC)c21` [Example 35], on Sting protein [1], the Kd lay in the range of 1000 to 10000 nM. Moreover, the EC50 at Sting protein [2] (read-out: IFN-β EC50) and on Sting protein [2] (read-out: IP10 EC50) was 10 to 100 nM each time. In addition, at Sting protein [2], the “activity of stimulating IFN-β and CXCL10” value is listed as “comparable or even higher activity”.
Regarding `CCc1nc(C)sc1C(=O)Nc1nc2cc(C(N)=O)cc(OCCCN3CCN(C(=O)OC)CC3)c2n1C/C=C/Cn1c(NC(=O)c2cc(C)nn2CC)nc2cc(C(N)=O)cc(SC)c21` [Example 40], the Kd on Sting protein [1] was in the range of 1000 to 10000 nM. Besides, the EC50 at Sting protein [2] (read-out: IFN-β EC50) is 10 to 100 nM. The “activity of stimulating IFN-β and CXCL10” value on Sting protein [2] is “comparable or even higher activity”.
On to `CCc1nc(C)sc1C(=O)Nc1nc2cc(C(N)=O)cc(SC)c2n1C/C=C/Cn1c(NC(=O)c2cc(C)nn2CC)nc2cc(C(N)=O)cc(OCCCN3CCN(C(C)=O)CC3)c21` [Example 41], for which the Kd on Sting protein [1] is 1000 to 10000 nM. In addition, the values for the EC50 on Sting protein [2] (read-out: IFN-β EC50) and at Sting protein [2] (read-out: IP10 EC50) were 100 to 1000 nM and 10 to 100 nM, respectively.
In the same order, the values of `CCc1nc(C)sc1C(=O)Nc1nc2cc(C(N)=O)cc(OCCCN3CCOCC3)c2n1C/C=C/Cn1c(NC(=O)c2c(F)c(C)nn2CC)nc2cc(C(N)=O)cc(OC)c21` [Example 47] are 1000 to 10000 nM, > 1000 nM and 10 to 100 nM.
On the same counts, the results for `CCc1nc(C)sc1C(=O)Nc1nc2cc(C(N)=O)cc(OC)c2n1C/C=C/Cn1c(NC(=O)c2c(F)c(C)nn2CC)nc2cc(C(N)=O)cc(OCCCN3CCOCC3)c21` [Example 48] are 1000 to 10000 nM, 100 to 1000 nM and 10 to 100 nM.
Consider `CCc1nc(C)sc1C(=O)Nc1nc2cc(C(N)=O)cc(OCCCN3CCOCC3)c2n1C/C=C/Cn1c(NC(=O)c2c(F)c(C)nn2CC)nc2cc(C(N)=O)cc(SC)c21` [Example 49], for which the Kd on Sting protein [1] lay within 1000 to 10000 nM. The EC50 was 10 to 100 nM on Sting protein [2] (read-out: IFN-β EC50) and < 10 nM on Sting protein [2] (read-out: IP10 EC50). Also, the “activity of stimulating IFN-β and CXCL10” value at Sting protein [2] was “comparable or even higher activity”.
On the same counts, the results for `CCc1nc(C)sc1C(=O)Nc1nc2cc(C(N)=O)cc(OCCCN3CCOCC3)c2n1C/C=C/Cn1c(NC(=O)c2sc(C)nc2CC)nc2cc(C(N)=O)cc(SC)c21` [Example 50] are 1000 to 10000 nM, 10 to 100 nM, 10 to 100 nM and “comparable or even higher activity”.
In the same order, the values of `CCn1nc(C)cc1C(=O)Nc1nc2cc(C(N)=O)cc(SC)c2n1C/C=C/Cn1c(NC(=O)c2c(F)c(C)nn2CC)nc2cc(C(N)=O)cc(OCCCN3CCOCC3)c21` [Example 51, (E)-1-(4-(5-(5-carbamoyl-2-)(1-styrene-3-methyl-1H-pyrazole-5-formylamino)-7-(methylthio)-1H-benzo[d]imidazol-1-yl)but-2-en-1-yl)-2-(1-styrene-4-fluoro-3-methyl-1H-pyrazole-5-anthralamido)-7-(3-morpholinopropoxy)-1H-benzo[d]imidazole-5-formylamide] are 1000 to 10000 nM, 10 to 100 nM, < 10 nM and “comparable or even higher activity”.
On the same counts, the results for `CCc1nc(C)sc1C(=O)Nc1nc2cc(C(N)=O)cc(SC)c2n1C/C=C/Cn1c(NC(=O)c2c(F)c(C)nn2CC)nc2cc(C(N)=O)cc(OCCCN3CCOCC3)c21` [Example 52] are 1000 to 10000 nM, 10 to 100 nM, < 10 nM and “comparable or even higher activity”.
For the compound `CCn1nc(C)c(F)c1C(=O)Nc1nc2cc(C(N)=O)cc(OCCCN3CCOCC3)c2n1C/C=C/Cn1c(NC(=O)c2c(F)c(C)nn2CC)nc2cc(C(N)=O)cc(SC)c21` [Example 53, (E)-1-(4-(5-carbamoyl-2-(1-ethyl-4-fluoro-3-methyl-1H-pyrazole-5-carboxamino)-7-(3-morpholinopropoxy)-1H-benzo[d]imidazol-1-yl)but-2-en-1-yl)-2-(1-ethyl-4-fluoro-3-methyl-1H-pyrazole-5-formylamino)-7-(methylthio)-1H-benzo[d]imidazole-5-carboxamide], at Sting protein [1], the Kd was in the range of 1000 to 10000 nM. Further, the EC50 at Sting protein [2] (read-out: IFN-β EC50) was 10 to 100 nM; at Sting protein [2] (read-out: IP10 EC50), < 10 nM. The “activity of stimulating IFN-β and CXCL10” value on Sting protein [2] is on record as “comparable or even higher activity”.

In general, Kd refers to the concentration at which binding is half-saturated. A word on the EC50: it is the concentration needed to bring the measured effect to its halfway point.
